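96-well plates; 48 h exposure; 5 concentrations. Endpoints by linear interpolation between flanking doses. Not reached: highest tested concentration assigned. GI50: concentration for 50% inhibition of growth. At the TGI there is no net growth.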 Where a SMILES comes first, the peptide text is derived from it. The star is where a group is joined. Boc = CC(C)(C)OC(=O)*; tBu = CC(C)(C)*
Legend:
Assay in all cases: NCI-60 cell line screen, 48 h
[1] = test system: HCC-2998 colon
[2] = test system: LOX IMVI melanoma
[3] = test system: K-562 leukemia
[4] = test system: OVCAR-4 ovarian
[5] = test system: SK-MEL-2 melanoma
[6] = test system: RXF 393 renal
[7] = test system: MDA-MB-231 breast
[8] = test system: T-47D breast
[9] = test system: DMS 114 small cell lung
[10] = test system: M19-MEL melanoma
[11] = test system: KM20L2 colon
[12] = test system: DLD-1 colon

Row | Structure (SMILES) | TGI [1] | TGI [2] | TGI [3] | TGI [4] | TGI [5] | TGI [6] | TGI [7] | TGI [8] | TGI [9] | TGI [10] | TGI [11] | TGI [12] | GI50 [1] | GI50 [2] | GI50 [3] | GI50 [4] | GI50 [5] | GI50 [6] | GI50 [7] | GI50 [8]
1 | CC(=O)c1sc2c(c1O)c(=O)n(-c1ccccc1)c(=S)n2-c1ccccc1 | > 100 µM | > 100 µM | > 100 µM | > 100 µM | > 100 µM | > 100 µM | > 100 µM | > 100 µM |  |  |  |  |  |  |  |  |  |  |  | 
2 | CN(CCCNC(=O)c1c2ccc3ccccc3c2nn1C)CCCNC(=O)c1c2ccc3ccccc3c2nn1C | 3.44 µM | 9.18 µM | 12 µM | 24 µM | 13.3 µM | 20 µM | 25.8 µM | 32.2 µM |  |  |  |  |  |  |  |  |  |  |  | 
3 | CCOC(=O)C1=C(C)N(CC(C)C)C2(O)C(OC)CC(=O)C3C(=O)N(c4ccccc4)C(=O)C132 (configuration not stated) | 53.8 µM | > 100 µM | > 100 µM | > 100 µM | 51.1 µM | 54.5 µM | > 100 µM | > 100 µM |  |  |  |  |  |  |  |  |  |  |  | 
4 | Nc1ncnc2c1N=C(c1ccccc1)CC(c1ccccc1)N2 (configuration not stated) | > 100 µM | > 100 µM | > 100 µM | > 100 µM | > 100 µM | > 100 µM | > 100 µM | > 100 µM |  |  |  |  |  |  |  |  |  |  |  | 
5 | Cc1cc(NS(=O)(=O)c2ccc(NC(=O)c3ccc4nc5ccccc5c(Nc5ccc(S(=O)(=O)Nc6cc(C)on6)cc5)c4c3)cc2)no1 | > 50 µM | > 50 µM | > 50 µM | > 50 µM | > 50 µM | > 50 µM | > 50 µM | > 50 µM |  |  |  |  |  |  |  |  |  |  |  | 
6 | Clc1cccc2[nH]ncc12 | > 100 µM | > 100 µM | > 100 µM | > 100 µM | > 100 µM | > 100 µM | > 100 µM | > 100 µM |  |  |  |  |  |  |  |  |  |  |  | 
7 | O=S(=O)(c1ccc2ccccc2c1)N1CCN(S(=O)(=O)c2ccc3ccccc3c2)CC1 | > 100 µM | > 100 µM | > 100 µM | > 100 µM | > 100 µM | > 100 µM | > 100 µM | > 100 µM |  |  |  |  |  |  |  |  |  |  |  | 
8 | Cc1cc(/N=C/c2ccc(Cl)cc2)n(-c2ccccc2)n1 | 71 µM | > 100 µM | > 100 µM | > 100 µM | > 100 µM | 77.1 µM | > 100 µM | 79.4 µM |  |  |  |  |  |  |  |  |  |  |  | 
9 | O=C1c2ccccc2-n2c1nc1ccc(Cl)cc1c2=O | > 100 µM | > 100 µM | > 100 µM | > 100 µM | > 100 µM | 44.8 µM | > 100 µM | > 100 µM |  |  |  |  |  |  |  |  |  |  |  | 
10 | CCN1C(=O)N2C(OC)c3ccccc3C(Br)C2(OC)C1=O (configuration not stated) | > 100 µM | > 100 µM | > 100 µM | > 100 µM | > 100 µM |  |  |  | > 100 µM | > 100 µM | > 100 µM | > 100 µM |  |  |  |  |  |  |  | 
11 | CCN(CC)C(=S)SSCCO | 43.3 µM | 46.3 µM | 18 µM | 27.9 µM | 39.6 µM | 34.8 µM | 30.3 µM | 34.2 µM |  |  |  |  | 18.9 µM | 19.9 µM | 4.21 µM | 14.7 µM | 19.9 µM | 19.4 µM | 15.3 µM | 15.4 µM
12 | CC(OC(C)(C)C)C(NC(=O)C(N)CCCCNC(=O)OC(C)(C)C)C(=O)NC(Cc1ccccc1)C(=O)O (configuration not stated) (H-Lys(Boc)-Thr(tBu)-Phe-OH; configuration not given here) | > 100 µM | > 100 µM | > 100 µM | > 100 µM | > 100 µM | > 100 µM | > 100 µM | > 100 µM |  |  |  |  |  |  |  |  |  |  |  | 
13 | Nc1ncnc2c1ncn2CCOC(c1ccccc1)P(=O)(O)O (configuration not stated) | > 100 µM | > 100 µM |  |  | > 100 µM | > 100 µM |  |  |  | > 100 µM | > 100 µM | > 100 µM |  |  |  |  |  |  |  | 

From PubChem BioAssay (NCI)
